Measurements: ChEMBL document CHEMBL4742394, “3-(aryl or heteroaryl) methyleneindolin-2-one derivatives as inhibitors of cancer stem cell pathway kinases for the treatment of cancer” (2019)
Blank lines part the entries; values can stand above or below the compound they belong to. Activity calls are given as the source filed them. The calls are words filed in the database; no cut-off is given here.

Tests used:
Homo sapiens = species: Homo sapiens; experiment: Inhibition of ERK phosphorylation (unknown origin) incubated for 6 hrs by Western blot analysis based cell based assay
[1] = biological target: Small ribosomal subunit protein eS6 (Homo sapiens) (UniProt P62753); experiment: Inhibition of RPS6 phosphorylation in human HeLa cells assessed as Ser235/236 phosphorylation level at 5 uM incubated for 6 hrs; type: cell-based; parameters: scale not given: the % may be the effect or the level left
[2] = biological target: Small ribosomal subunit protein eS6 (Homo sapiens) (UniProt P62753); experiment: Inhibition of RPS6 phosphorylation in human HeLa cells assessed as Ser240/244 phosphorylation level at 5 uM incubated for 6 hrs; type: cell-based; parameters: scale not given: the % may be the effect or the level left
FaDu [3] = experiment: Growth inhibition of human FaDu cancer stem cells incubated for 72 hrs by cell-titer Glo luminescence assay; type: functional, cell-based
[4] = biological target: Small ribosomal subunit protein eS6 (Homo sapiens) (UniProt P62753); experiment: Inhibition of RPS6 phosphorylation (unknown origin) incubated for 6 hrs by Western blot analysis based cell based assay
FaDu [5] = experiment: Growth inhibition of human FaDu cells incubated for 72 hrs by cell-titer Glo luminescence assay; type: functional, cell-based

Compound: CCOC(=O)CCc1ccc(-c2nc(-c3ccc4c(c3)/C(=C/c3[nH]c(C)c(C(=O)NCCN(CC)CC)c3C)C(=O)N4)cs2)cc1
- inhibition (Homo sapiens): Active

- Activity [1]: 4%
- Activity [2]: 26%
Compound: CCN(CC)CCNC(=O)c1c(C)[nH]c(/C=C2\C(=O)Nc3ccc(-c4n[nH]c5ccccc45)cc32)c1C

Compound: Cc1cc(C)c(/C=C2\C(=O)Nc3ccc(-c4ccc(C=O)cc4)cc32)[nH]1
- inhibition (Homo sapiens): Active

Compound: COc1cccnc1-c1ccc2c(c1)/C(=C/c1[nH]c(C)cc1C)C(=O)N2
- IC50 (FaDu [3]): 2520 nM
- inhibition (Homo sapiens): Active

- inhibition [4]: Active
Compound: CCNC(=O)c1c(C)[nH]c(/C=C2\C(=O)Nc3ccc(-c4csc(-c5ccccc5)n4)cc32)c1C
- inhibition (Homo sapiens): Active

Compound: Cc1ccc(-c2nc(-c3ccc4c(c3)/C(=C/c3[nH]c(C)c(C(=O)N5CCN(C)CC5)c3C)C(=O)N4)cs2)cc1
- IC50 (FaDu [5]): 23.7 µM

- Activity [1]: 76%
- Activity [2]: 76%
Compound: Cc1cc(C)c(/C=C2\C(=O)Nc3ccc(-c4csc(C5CCNCC5)n4)cc32)[nH]1
